# Paper PMC5735336, “Microwave-assisted synthesis and antitumor evaluation of a new series of thiazolylcoumarin derivatives” (EXCLI Journal, 2017)
# How the values were obtained:
# [1] = tested on: kidney fibroblast (COS-7) cancer cell line; assay: In vitro antitumor screening, MTT assay, COS-7; type: cell-based; conditions: Chlorocebus aethiops, 50% inhibition of cell viability, COS-7 cell line
# Experimental: (§1) The new analogs were tested for in vitro antitumor efficacy adopting the reported procedure (Mosmann, 1983[46]; Denizot and Lang, 1986[13]; Gerlier and Thomasset, 1986[21]).
# (§2) In vitro antitumor screening of compounds 5a-t was carried out on cervical (Hela) and kidney fibroblast (COS-7) cancer cell lines in accord to MTT assay (Mosmann, 1983[46]; Denizot and Lang, 1986[13]; Gerlier and Thomasset, 1986[21]) and utilizing doxorubicin as a standard drug. The concentrations of the compounds that cause 50% inhibition of cell viability (IC50, µM) were calculated. […]
# In vitro antitumor screening […]
# (§3) HCT-116 (colon) and MCF-7 (breast) cancer cell lines adopting MTT assa y (Mosmann, 1983; Denizot and Lang, 1986; Gerlier and Thomasset, 1986) and usin g 5- fluorouracil as a reference antitumor agent. Cells were cultured in Roswell Park Memorial Institute (RPM I) 1640 medium wit h 10% fetal bovine serum, penicillin (100 units/mL) and streptomycin (100 µg/mL) at 37 ° C in an atmosphere of 5% CO 2 were added.
# (§4) Cells were placed in 96-multiwell microtiter plates (10^4 cells/well), for 24 h rs at 37 °C and in an atmosphere of 5% CO2 before tr eatment with the compounds to allow attachment of the cells to the wall of the plate. The tested compounds were dissolved in DMSO and diluted with phosphate buffer saline (PBS) to obtain different concentrations. Tested compounds of dif-ferent concentrations were added to each well and cells were incubated with the compounds for 48 hrs at 37 °C and in an atmosphere of 5% CO2. All tests were performed in triplicates.
# (§5) The treated cells were wash ed with PBS and 100 µL of 3 -(4,5-dimeth ylthiazol-2-yl )-2,5-diphe-n yltetrazolium bromide solution (MTT) (5 mg/m L MTT st ock in PBS diluted to 1 mg/ mL with 10% RPMI-1640 medium) was added. The 9 6 -multiwell plates were read b y microarra y read er Perkinelmer vector 3V multilabel counter model 1420 (Perkinelmer, Boston, MA) for optical densit y at 490 nm (Mosmann, 1983; Denizot and Lang, 1986; Gerlier and Thomasset, 1986).
# (§6) The relative percenta ge cell viabilit y was calculate d from the following equation: […]
# (§7) The relation between surviving fraction and drug concentration is plotted to get the survival curve for HepG2, HCT-116 and M CF-7 cancer cell lines . […]
# (§8) Denizot F, Lang R. Rapid colorimetric assa y for cell growth and survival. Modifications to the tetrazolium dye procedure giving improved sensitivity an d reliability. J Immunol Methods. 1986;89:271-7.
# (§9) Gerlier D, Thomasset T. Use of MTT colorimetric assa y to measure cell activation. J Immunol Methods. 1986; […]
# (§10) Mosmann T. Rapid colorimetric assa y for cellular growth and survival: Application to proliferation and cytotox- […]
# (§11) Oberling C, Gu erin M. The role of viruses in the production of cancer . Ad v Cancer Res. 1954;2:353-423.
# (§12) Sheeja KR, Kuttan G, Kuttan R. C ytotox ic and antitumour activit y of Berberin. Amala Res Bull. 1997;17:73-6.
# [2] = tested on: cervical (Hela) cancer cell line; assay: In vitro antitumor screening, MTT assay, Hela; type: cell-based; conditions: Homo sapiens, 50% inhibition of cell viability
# Experimental: as §1, §2
# In vitro antitumor screening
# as §3, with “Compounds 5a-t were screened for in vitro antitumor activity against HepG2 (liver), HCT-116” for “HCT-116”
# as §4, §5, §6, §7, §8, §9, §10, §11, §12
SMILES,melting point,IC50 [2],IC50 [1]
"Cc1cccc(C=NNc2nc(-c3cc4ccccc4oc3=O)cs2)c1 [5e, 3-(2-(2-(3-Methylbenzylidene)hydrazino)thiazol-4-yl)-2H-chromen-2-one]",190 to 191 °C,> 50 µM,> 50 µM
"O=c1oc2ccccc2cc1-c1csc(NN=Cc2ccccc2Br)n1 [5a, 3-(2-(2-(2-Bromobenzylidene)hydrazino)thiazol-4-yl)-2H-chromen-2-one]",212 to 213 °C,> 50 µM,> 50 µM
"Cc1ccc(O)c(C=NNc2nc(-c3cc4ccccc4oc3=O)cs2)c1 [5j, 3-(2-(2-(2-Hydroxy-5-methylbenzylidene)hydrazino)thiazol-4-yl)-2H-chromen-2-one]",206 to 207 °C,> 50 µM,> 50 µM
"O=c1ccc2cc(C=NNc3nc(-c4cc5ccccc5oc4=O)cs3)ccc2o1 [5q, 6-((2-(4-(2-Oxo-2H-chromen-3-yl)thiazol-2-yl)hydrazono)methyl)-2H-chromen-2-one]",181 to 183 °C,> 50 µM,> 50 µM
"O=c1oc2ccccc2cc1-c1csc(NN=Cc2cc3ccccc3c3ccccc23)n1 [5s, 3-(2-(2-(Phenanthren-9-ylmethylidene)-hydrazino)thiazol-4-yl)-2H-chromen-2-one]",245 to 247 °C,> 50 µM,> 50 µM
"COc1ccc(C=NNc2nc(-c3cc4ccccc4oc3=O)cs2)c(OC)c1 [5l, 3-(2-(2-(2,4-Dimethoxybenzylidene)-hydrazino)thiazol-4-yl)-2H-chromen-2-one]",219 to 220 °C,> 50 µM,> 50 µM
"N#Cc1ccccc1C=NNc1nc(-c2cc3ccccc3oc2=O)cs1 [5b, 3-(2-(2-(2-Cyanobenzylidene)hydrazino)thiazol-4-yl)-2H-chromen-2-one]",219 to 220 °C,> 50 µM,> 50 µM
"O=c1oc2ccccc2cc1-c1csc(NN=Cc2ccc(C(F)(F)F)cc2)n1 [5d, 3-(2-(2-(4-(Trifluoromethyl)benzylidene)hydrazino)thiazol-4-yl)-2H-chromen-2-one]",189 to 190 °C,> 50 µM,> 50 µM
"O=c1oc2ccccc2cc1-c1csc(NN=Cc2ccc(-c3ccccc3)cc2)n1 [5n, 3-(2-(2-((1,1'-Biphenyl)-4-ylmethylidene)-hydrazino)thiazol-4-yl)-2H-chromen-2-one]",198 to 200 °C,> 50 µM,> 50 µM
"O=c1oc2ccccc2cc1-c1csc(NN=Cc2cc3ccc4cccc5ccc(c2)c3c45)n1 [5t, 3-(2-(2-(Pyren-2-ylmethylidene)hydrazino)thiazol-4-yl)-2H-chromen-2-one]",237 to 239 °C,> 50 µM,> 50 µM

# More lines, main results first:
melting point,IC50 [2],SMILES,IC50 [1]
193 to 194 °C,> 50 µM,"Cc1cc(C=NNc2nc(-c3cc4ccccc4oc3=O)cs2)ccc1O [5k, 3-(2-(2-(4-Hydroxy-3-methylbenzylidene)-hydrazino)thiazol-4-yl)-2H-chromen-2-one]",> 50 µM
224 to 225 °C,> 50 µM,"N#Cc1cccc(C=NNc2nc(-c3cc4ccccc4oc3=O)cs2)c1 [5c, 3-(2-(2-(3-Cyanobenzylidene)hydrazino)thiazol-4-yl)-2H-chromen-2-one]",> 50 µM
182 to 184 °C,> 50 µM,"O=c1oc2ccccc2cc1-c1csc(NN=Cc2ccc(O)c(Br)c2)n1 [5i, 3-(2-(2-(3-Bromo-4-hydroxybenzylidene)hydrazino)thiazol-4-yl)-2H-chromen-2-one]",> 50 µM
225 to 227 °C,> 50 µM,"O=c1oc2ccccc2cc1-c1csc(NN=Cc2ccc3ccccc3c2)n1 [5o, 3-(2-(2-(Naphthalen-2-ylmethylidene)hydrazino)thiazol-4-yl)-2H-chromen-2-one]",> 50 µM
195 to 196 °C,> 50 µM,"O=c1oc2ccccc2cc1-c1csc(NN=Cc2c(F)cccc2Cl)n1 [5g, 3-(2-(2-(2-Chloro-6-fluorobenzylidene)hydrazino)thiazol-4-yl)-2H-chromen-2-one]",> 50 µM
211 to 213 °C,> 50 µM,"O=c1oc2ccccc2cc1-c1csc(NN=Cc2ccc3ccccc3c2[N+](=O)[O-])n1 [5p, 3-(2-(2-((1-Nitronaphthalen-2-yl)methylidene)hydrazino)thiazol-4-yl)-2H-chromen-2-one]",> 50 µM
–,2.05 µM,"COc1cccc2c1C(=O)c1c(O)c3c(c(O)c1C2=O)C[C@@](O)(C(=O)CO)C[C@@H]3O[C@H]1C[C@H](N)[C@H](O)[C@H](C)O1 [Doxorubicin, doxorubicin, reference compound]",3.04 µM
